Measured values: patent US9315503B2, “Kinase inhibitors” (CHIESI FARMACEUTICI S.p.A., priority 2011, dated 2016)
pIC50: −log10 of the molar value.

Tests used:
[1] = test system: LPS-stimulated TNFα release from PBMCs; assay: LPS-stimulated PBMC TNFα release assay; assay type: cell-based; details: inhibition of TNFα release, human PBMCs, LPS 10 ng/ml, 18 h, ELISA, read-out: p38α inhibition (IC50 values)
Protocol: LPS-Stimulated PBMC TNFα Release Assay.
Peripheral Blood Mononuclear Cells (PBMCs) were isolated from healthy human volunteer blood using a standard density gradient centrifugation technique. Citrated blood was placed onto Histopaque™ and centrifuged. The PBMCs were removed from the density gradient interface and washed in phosphate buffered saline (PBS). The PBMCs were suspended in RPMI 1640 medium (without serum), dispensed into a 96-well plate and incubated at 37° C. for 3 h in a humidified incubator. After incubation, the medium was replaced (with medium containing 1% foetal bovine serum) and the plate incubated at 37° C., for 1 h, in the presence of test compound or the appropriate vehicle. LPS (10 ng/ml), or an appropriate vehicle control, was then added to the cells and the plate returned to the incubator for 18 h. Cell-free supernatants were removed and assayed for TNFα levels using an ELISA kit from R&D Systems.
A dose response curve to each test compound was performed and the effect of compound in each experiment was expressed as a percentage inhibition of the control TNFα release. Dose response curves were plotted and compound potency (IC50) was determined. Compounds were tested in at least three separate experiments.

[2] = target: T1, p38alpha (Homo sapiens, UniProt Q16539); assay: P38Alpha enzyme inhibition assay (Alphascreen kinase activity assay); assay type: biochemical; details: 100 pM p38alpha, 250 μM ATP, 2 hours pre-incubation at 25° C., read-out: p38α inhibition (IC50 values)
T1 construct: purchased Invitrogen PV3304
T1 sequence (Q16539 whole entry): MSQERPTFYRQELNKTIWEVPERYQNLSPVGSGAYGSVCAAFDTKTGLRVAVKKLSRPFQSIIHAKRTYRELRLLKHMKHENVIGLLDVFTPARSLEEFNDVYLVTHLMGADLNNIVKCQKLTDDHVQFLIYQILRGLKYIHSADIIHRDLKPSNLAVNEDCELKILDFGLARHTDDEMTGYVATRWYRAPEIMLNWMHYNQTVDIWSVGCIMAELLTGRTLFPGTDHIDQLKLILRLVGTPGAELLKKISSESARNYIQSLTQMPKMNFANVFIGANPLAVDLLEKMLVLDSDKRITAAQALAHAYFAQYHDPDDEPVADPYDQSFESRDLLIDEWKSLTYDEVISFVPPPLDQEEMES
Outline: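 p38α (100 pM) with ATF-2 fusion protein substrate (0.3 µg/ml) in pH 7.5 HEPES/MgCl2 buffer, 1% DMSO, preincubated 2 h at 25°C with compound. Reaction started with 250 µM ATP, ran 1 h at 25°C, then stopped with EDTA. Phospho-ATF2 antibody detected by AlphaScreen luminescence; IC50 from concentration-response curves.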

Row | Compound | pIC50 [2] | pIC50 [1]
1 | Cc1ccc(-n2nc(C(C)(C)C)cc2NC(=O)N[C@H]2CC[C@@H](Oc3ccc4nnc(N5CCCCC5)n4c3)c3ccccc32)cc1 [Example 3] | > 8.00 | > 8.00
2 | Cc1ccc(-n2nc(C(C)(C)C)cc2NC(=O)N[C@H]2CC[C@@H](Oc3ccc4nnc(CN5CCNCC5)n4c3)c3ccccc32)cc1 [Example 7, 1-(5-tert-Butyl-2-p-tolyl-2H-pyrazol-3-yl)-3-[(1S,4R)-4-(3-piperazin-1-ylmethyl-[1,2,4]triazolo[4,3-a]pyridin-6-yloxy)-1,2,3,4-tetrahydro-naphthalen-1-yl]-urea] | > 8.00 | 6.00 to 7.00
3 | Cc1ccc(-n2nc(C(C)(C)C)cc2NC(=O)N[C@H]2CC[C@@H](Oc3ccc4nnc(NC(C)C)n4c3)c3ccccc32)cc1 [Example 8, 1-(5-tert-Butyl-2-p-tolyl-2H-pyrazol-3-yl)-3-[(1S,4R)-4-(3-isopropylamino-[1,2,4]triazolo[4,3-a]pyridin-6-yloxy)-1,2,3,4-tetrahydro-naphthalen-1-yl]-urea] | > 8.00 | > 8.00
4 | Cc1ccc(-n2nc(C(C)(C)C)cc2NC(=O)N[C@H]2CC[C@@H](Oc3ccc(C#N)nc3)c3ccccc32)cc1 [Example 9, 1-(5-tert-Butyl-2-p-tolyl-2H-pyrazol-3-yl)-3-[(1S,4R)-4-(6-cyano-pyridin-3-yloxy)-1,2,3,4-tetrahydro-naphthalen-1-yl]-urea] | > 8.00 | 6.00 to 7.00
5 | COCC(=O)Nc1cc(O[C@H]2CC[C@H](NC(=O)Nc3cc(C(C)(C)C)nn3-c3ccc(C)cc3)c3ccccc32)ccn1 [Example 10, N-(4-{(1S,4S)-4-[3-(5-tert-Butyl-2-p-tolyl-2H-pyrazol-3-yl)-ureido]-1,2,3,4-tetrahydro-naphthalen-1-yloxy}-pyridin-2-yl)-2-methoxy-acetamide] | > 8.00 | > 8.00
6 | Cc1ccc(-n2nc(C(C)(C)C)cc2NC(=O)N[C@H]2CC[C@@H](Oc3ccc4cnn(CCO)c4c3)c3ccccc32)cc1 [Example 11, 1-(5-tert-Butyl-2-p-tolyl-2H-pyrazol-3-yl)-3-{(1S,4R)-4-[1-(2-hydroxy-ethyl)-1H-indazol-6-yloxy]-1,2,3,4-tetrahydro-naphthalen-1-yl}-urea] | > 8.00 | 7.00 to 8.00
7 | Cc1ccc(-n2nc(C(C)(C)C)cc2NC(=O)N[C@H]2CC[C@@H](Oc3ccc4nnc([C@H]5CCCN5)n4c3)c3ccccc32)cc1 [Example 12, 1-(5-tert-Butyl-2-p-tolyl-2H-pyrazol-3-yl)-3-[(1S,4R)-4-((R)-3-pyrrolidin-2-yl-[1,2,4]triazolo[4,3-a]pyridin-6-yloxy)-1,2,3,4-tetrahydro-naphthalen-1-yl]-urea] | > 8.00 | > 8.00
8 | COCC(=O)Nc1cc(O[C@@H]2CC[C@H](NC(=O)Nc3cc(C(C)(C)C)nn3-c3ccc(C)cc3)c3ccccc32)ccn1 [Example 13, N-(4-{(1R,4S)-4-[3-(5-tert-Butyl-2-p-tolyl-2H-pyrazol-3-yl)-ureido]-1,2,3,4-tetrahydro-naphthalen-1-yloxy}-pyridin-2-yl)-2-methoxy-acetamide] | > 8.00 | > 8.00
9 | Cc1ccc(-n2nc(C(C)(C)C)cc2NC(=O)N[C@H]2CC[C@@H](Oc3ccc4nnc(-c5ccc(CN6CCOCC6)cc5)n4c3)c3ccccc32)cc1 [Example 18, 1-(5-tert-Butyl-2-p-tolyl-2H-pyrazol-3-yl)-3-{(1S,4R)-4-[3-(4-morpholin-4-ylmethyl-phenyl)-[1,2,4]triazolo[4,3-a]pyridin-6-yloxy]-1,2,3,4-tetrahydro-naphthalen-1-yl]-urea] | > 8.00 | > 8.00

Continued, in another order:

Row | pIC50 [2] | Compound | pIC50 [1]
10 | > 8.00 | Cc1ccc(-n2nc(C(C)(C)C)cc2NC(=O)N[C@H]2CC[C@@H](Oc3ccc4nnc(-c5cccc(CN6CCOCC6)c5)n4c3)c3ccccc32)cc1 [Example 19, 1-(5-tert-Butyl-2-p-tolyl-2H-pyrazol-3-yl)-3-{(1S,4R)-4-[3-(3-morpholin-4-ylmethyl-phenyl)-[1,2,4]triazolo[4,3-a]pyridin-6-yloxy]-1,2,3,4-tetrahydro-naphthalen-1-yl}-urea] | > 8.00
11 | > 8.00 | Cc1ccc(-n2nc(C(C)(C)C)cc2NC(=O)N[C@H]2CC[C@@H](Oc3ccc4nnc(-c5ccccc5CN5CCOCC5)n4c3)c3ccccc32)cc1 [Example 20, 1-(5-tert-Butyl-2-p-tolyl-2H-pyrazol-3-yl)-3-{(1S,4R)-4-[3-(2-morpholin-4-ylmethyl-phenyl)-[1,2,4]triazolo[4,3-a]pyridin-6-yloxy]-1,2,3,4-tetrahydro-naphthalen-1-yl}-urea] | > 8.00
12 | 7.00 to 8.00 | Cc1ccc(-n2nc(C(C)(C)C)cc2NC(=O)N[C@H]2CC[C@@H](Oc3ccc(CN4CCOCC4)nc3)c3ccccc32)cc1 [Example 21, 1-(5-tert-Butyl-2-p-tolyl-2H-pyrazol-3-yl)-3-[(1S,4R)-4-(6-morpholin-4-ylmethyl-pyridin-3-yloxy)-1,2,3,4-tetrahydro-naphthalen-1-yl]-urea] | 7.00 to 8.00
13 | > 8.00 | Cc1ccc(-n2nc(C(C)(C)C)cc2NC(=O)N[C@H]2CC[C@@H](Oc3ccc4nnc(CC5CCN(C)CC5)n4c3)c3ccccc32)cc1 [Example 22, 1-(5-tert-Butyl-2-p-tolyl-2H-pyrazol-3-yl)-3-{(1S,4R)-4-[3-(1-methyl-piperidin-4-ylmethyl)-[1,2,4]triazolo[4,3-a]pyridin-6-yloxy]-1,2,3,4-tetrahydro-naphthalen-1-yl}-urea] | 6.00 to 7.00
14 | > 8.00 | Cc1ccc(-n2nc(C(C)(C)C)cc2NC(=O)N[C@H]2CC[C@@H](Oc3ccc4nnc(CC5CCN(CC(F)F)CC5)n4c3)c3ccccc32)cc1 [Example 23, 1-(5-tert-Butyl-2-p-tolyl-2H-pyrazol-3-yl)-3-((1S,4R)-4-{3-[1-(2,2-difluoro-ethyl)-piperidin-4-ylmethyl]-[1,2,4]triazolo[4,3-a]pyridin-6-yloxy}-1,2,3,4-tetrahydro-naphthalen-1-yl)-urea] | > 8.00
15 | > 8.00 | Cc1ccc(-n2nc(C(C)(C)C)cc2NC(=O)N[C@H]2CC[C@@H](Oc3ccc4nnc(N5CCC(O)CC5)n4c3)c3ccccc32)cc1 [Example 24, 1-(5-tert-Butyl-2-p-tolyl-2H-pyrazol-3-yl)-3-[(1S,4R)-4-[3-(4-hydroxypiperidin-1-yl)-[1,2,4]triazolo[4,3-a]pyridine-6-yloxy]-1,2,3,4-tetrahydro-naphthalen-1-yl]-urea] | > 8.00
16 | > 8.00 | Cc1ccc(-n2nc(C(C)(C)C)cc2NC(=O)N[C@H]2CC[C@@H](Oc3ccc4nnc(N(C)CCO)n4c3)c3ccccc32)cc1 [Example 25, 1-(5-tert-Butyl-2-p-tolyl-2H-pyrazol-3-yl)-3-[(1S,4R)-4-{3-[(2-hydroxy-ethyl)-methyl-amino]-[1,2,4]triazolo[4,3-a]pyridine-6-yloxy]-1,2,3,4-tetrahydro-naphthalen-1-yl]-urea] | > 8.00
17 | > 8.00 | Cc1ccc(-n2nc(C(C)(C)C)cc2NC(=O)N[C@H]2CC[C@@H](Oc3ccc4nnc(N5CC[C@H](O)C5)n4c3)c3ccccc32)cc1 [Example 26, 1-(5-tert-Butyl-2-p-tolyl-2H-pyrazol-3-yl)-3-{(1S,4R)-4-[3-((S)-3-hydroxy-pyrrolidin-1-yl)-[1,2,4]triazolo[4,3-a]pyridin-6-yloxy]-1,2,3,4-tetrahydro-naphthalen-1-yl}-urea] | > 8.00
18 | > 8.00 | Cc1ccc(-n2nc(C(C)(C)C)cc2NC(=O)N[C@H]2CC[C@@H](Oc3ccc4nnc(N5CCC[C@@H]5CO)n4c3)c3ccccc32)cc1 [Example 27, 1-(5-tert-Butyl-2-p-tolyl-2H-pyrazol-3-yl)-3-{(1S,4R)-4-[3-((R)-2-hydroxymethyl-pyrrolidin-1-yl)-[1,2,4]triazolo[4,3-a]pyridin-6-yloxy]-1,2,3,4-tetrahydro-naphthalen-1-yl}-urea] | > 8.00
19 | > 8.00 | Cc1ccc(-n2nc(C(C)(C)C)cc2NC(=O)N[C@H]2CC[C@@H](Oc3ccc4nnc(N5CCC[C@H]5CO)n4c3)c3ccccc32)cc1 [Example 28, 1-(5-tert-Butyl-2-p-tolyl-2H-pyrazol-3-yl)-3-{(1S,4R)-4-[3-((S)-2-hydroxymethyl-pyrrolidin-1-yl)-[1,2,4]triazolo[4,3-a]pyridin-6-yloxy]-1,2,3,4-tetrahydro-naphthalen-1-yl}-urea] | > 8.00
20 | > 8.00 | CC(C)(C)c1cc(NC(=O)N[C@H]2CC[C@@H](Oc3ccc4nnc(N5CCCCC5)n4c3)c3ccccc32)n(-c2cccc(CO)c2)n1 [Example 29, 1-[5-tert-Butyl-2-(3-hydroxymethyl-phenyl)-2H-pyrazol-3-yl]-3-[(1S,4R)-4-(3-piperidin-1-yl-[1,2,4]triazolo[4,3-a]pyridin-6-yloxy)-1,2,3,4-tetrahydro-naphthalen-1-yl]-urea] | > 8.00
